{"source": "paper PMC4839570", "about": "“Novel Anthra[1,2-c][1,2,5]Thiadiazole-6,11-Diones as Promising Anticancer Lead Compounds: Biological Evaluation, Characterization & Molecular Targets Determination” (PLoS ONE, 2016)", "key": {"[1]": {"system": "Mycobacterium tuberculosis H37Rv", "assay": "Antimycobacterial susceptibility, BACTEC MGIT 960 SIRE", "format": "cell-based"}, "[2]": {"system": "normal cardiac myoblast H9c2 cells", "procedure": "Briefly, 96 well microtiter plates were inoculated with the specified human cancer cell lines in RPMI 1640 medium containing 5% fetal bovine serum and 2 mM L-glutamine at the specified plating densities. The microtiter plates were incubated at 37°C, 5% CO2, and 100% relative humidity for 24 h. The test compounds were solubilized in DMSO at 400-fold the desired final maximum test concentration, diluted with complete medium containing gentamicin and added to the wells of the microtiter plates to achieve the final desired compound concentration, then incubated for an additional 48 h at the same incubation conditions. The media were removed, the cells were fixed then stained with sulforhodamine B and the unbound dye was removed by washing with acetic acid. The bound dye was resolubilized with trizma base and the absorbance at 515 nm was measured. Cells were stained with the WST-1 cell proliferation reagent instead of sulforhodamine B in some experiments and absorbance were measured at 440 nm. The three dose response parameters GI50, TGI and LC50 were calculated for each experimental compound as follows [48]: For values where Ti ≥ Tz the formula is [ (Ti-Tz) / (C-Tz)] x 100 For values where Ti < Tz the formula is [ (Ti-Tz) / Tz] x 100 Where Ti is the absorbance of the solubilized Sulforhodamine B (SRB) (representing the number of cells) of the five different concentrations of the compound used in the test, Tz is the absorbance of the SRB at time zero, and C is the absorbance of the SRB of the control growth."}, "[3]": {"system": "MGH-U1R cell line", "design": "method as in PMID 25431950", "conditions": "cited from earlier work"}}}
{"compound": "[H]/N=C(/N)N[C@H]1[C@H](O)[C@@H](O)[C@H](O[C@@H]2O[C@@H](C)[C@](O)(C=O)[C@H]2O[C@@H]2O[C@@H](CO)[C@H](O)[C@@H](O)[C@@H]2NC)[C@@H](N/C(N)=N\\[H])[C@@H]1O", "note": "[Streptomycin, reference compound]", "values": [{"measurement": "Effect on M. tuberculosis H37Rv", "setting": "[1]; 1 μg/mL", "value": "Inhibition"}]}
{"compound": "CO[C@H]1/C=C/O[C@@]2(C)Oc3c(C)c(O)c4c(O)c(c(/C=N/N5CCN(C)CC5)c(O)c4c3C2=O)NC(=O)/C(C)=C\\C=C\\[C@H](C)[C@H](O)[C@@H](C)[C@@H](O)[C@@H](C)[C@H](OC(C)=O)[C@@H]1C", "note": "[Rifampin, reference compound]", "values": [{"measurement": "Effect on M. tuberculosis H37Rv", "setting": "[1]; 1 μg/mL", "value": "Inhibition"}]}
{"compound": "NNC(=O)c1ccncc1", "note": "[Isoniazid, reference compound]", "values": [{"measurement": "Effect on M. tuberculosis H37Rv", "setting": "[1]; 0.1 μg/mL", "value": "Inhibition"}]}
{"compound": "CC[C@@H](CO)NCCN[C@@H](CC)CO", "note": "[Ethambutol, reference compound]", "values": [{"measurement": "Effect on M. tuberculosis H37Rv", "setting": "[1]; 5 μg/mL", "value": "Inhibition"}]}
{"compound": "COc1cccc2c1C(=O)c1c(O)c3c(c(O)c1C2=O)C[C@@](O)(C(=O)CO)C[C@@H]3O[C@H]1C[C@H](N)[C@H](O)[C@H](C)O1", "note": "[Doxorubicin, doxorubicin, reference compound]", "values": [{"measurement": "cytotoxicity towards normal cardiac myoblast H9c2 cells", "setting": "[2]", "value": "potent dose dependent cytotoxic effect"}, {"measurement": "resistance of MGH-U1R cell line", "setting": "[3]", "value": 40, "unit": "fold"}]}
